Source: PubChem BioAssay (NCI)
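In this assay, cells in 96-well plates receive the compound at five concentrations for 48 hours. Endpoints are linearly interpolated between the surrounding concentrations. TGI: total growth inhibition.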

Columns and labels:
Assay in all cases: inhibition of tumour cell growth, NCI panel, 48 h
HT29 colon = system: HT29 colon
RXF-631 renal = system: RXF-631 renal
SK-MEL-28 melanoma = system: SK-MEL-28 melanoma
KM12 colon = system: KM12 colon
NCI-H23 lung = system: NCI-H23 lung
SF-539 CNS = system: SF-539 CNS
DMS 114 small cell lung = system: DMS 114 small cell lung
SNB-19 CNS = system: SNB-19 CNS
HCT-15 colon = system: HCT-15 colon
SF-268 CNS = system: SF-268 CNS
HL-60(TB) leukemia = system: HL-60(TB) leukemia
SK-MEL-5 melanoma = system: SK-MEL-5 melanoma
HCC-2998 colon = system: HCC-2998 colon
NCI-H522 lung = system: NCI-H522 lung
SN12C renal = system: SN12C renal
UO-31 renal = system: UO-31 renal
DMS 273 small cell lung = system: DMS 273 small cell lung
RXF 393 renal = system: RXF 393 renal
UACC-62 melanoma = system: UACC-62 melanoma
HOP-62 NSCLC = system: HOP-62 NSCLC
CCRF-CEM leukemia = system: CCRF-CEM leukemia
MOLT-4 leukemia = system: MOLT-4 leukemia
SW-620 colon = system: SW-620 colon
RPMI-8226 leukemia = system: RPMI-8226 leukemia
SNB-78 CNS = system: SNB-78 CNS
LOX IMVI melanoma = system: LOX IMVI melanoma
OVCAR-4 ovarian = system: OVCAR-4 ovarian
786-0 renal = system: 786-0 renal
SNB-75 CNS = system: SNB-75 CNS
TK-10 renal = system: TK-10 renal
NCI-H460 lung = system: NCI-H460 lung
M19-MEL melanoma = system: M19-MEL melanoma
SK-MEL-2 melanoma = system: SK-MEL-2 melanoma
OVCAR-5 ovarian = system: OVCAR-5 ovarian
OVCAR-8 ovarian = system: OVCAR-8 ovarian
OVCAR-3 ovarian = system: OVCAR-3 ovarian
MALME-3M melanoma = system: MALME-3M melanoma
NCI-H226 lung = system: NCI-H226 lung
A498 renal = system: A498 renal
HOP-92 NSCLC = system: HOP-92 NSCLC
UACC-257 melanoma = system: UACC-257 melanoma
SK-OV-3 ovarian = system: SK-OV-3 ovarian
M14 melanoma = system: M14 melanoma
A549 NSCLC = system: A549 NSCLC
K-562 leukemia = system: K-562 leukemia
KM20L2 colon = system: KM20L2 colon
COLO 205 colon = system: COLO 205 colon
SF-295 CNS = system: SF-295 CNS
HCT-116 colon = system: HCT-116 colon
LXFL 529 NSCLC = system: LXFL 529 NSCLC
EKVX NSCLC = system: EKVX NSCLC
ACHN renal = system: ACHN renal
CAKI-1 renal = system: CAKI-1 renal
IGROV1 ovarian = system: IGROV1 ovarian
U251 CNS = system: U251 CNS
HOP-18 NSCLC = system: HOP-18 NSCLC

Cc1c(C(=O)CC(=O)C(=O)Nc2ccc(Cl)c(Cl)c2)[n+](=O)c2ccccc2n1[O-]
TGI (HT29 colon): 74.5 µM | TGI (RXF-631 renal): 60.3 µM | TGI (SK-MEL-28 melanoma): > 100 µM | TGI (KM12 colon): > 100 µM | TGI (NCI-H23 lung): 96 µM | TGI (SF-539 CNS): 57.5 µM | TGI (DMS 114 small cell lung): 34.3 µM | TGI (SNB-19 CNS): > 100 µM | TGI (HCT-15 colon): 48.2 µM | TGI (SF-268 CNS): 85.2 µM | TGI (HL-60(TB) leukemia): 47.4 µM | TGI (SK-MEL-5 melanoma): 43.9 µM | TGI (HCC-2998 colon): 67.3 µM | TGI (NCI-H522 lung): 37 µM | TGI (SN12C renal): 55.4 µM | TGI (UO-31 renal): > 100 µM | TGI (DMS 273 small cell lung): 49.9 µM | TGI (RXF 393 renal): 92.2 µM | TGI (UACC-62 melanoma): 32.7 µM | TGI (HOP-62 NSCLC): > 100 µM | TGI (CCRF-CEM leukemia): 43 µM | TGI (MOLT-4 leukemia): 44.5 µM | TGI (SW-620 colon): 71.8 µM | TGI (RPMI-8226 leukemia): 45.7 µM | TGI (SNB-78 CNS): > 100 µM | TGI (LOX IMVI melanoma): 53.2 µM | TGI (OVCAR-4 ovarian): 34.7 µM | TGI (786-0 renal): 69 µM | TGI (SNB-75 CNS): 48.9 µM | TGI (TK-10 renal): > 100 µM | TGI (NCI-H460 lung): 57.1 µM | TGI (M19-MEL melanoma): 33.3 µM | TGI (SK-MEL-2 melanoma): 57 µM | TGI (OVCAR-5 ovarian): 86.4 µM | TGI (OVCAR-8 ovarian): 43.6 µM | TGI (OVCAR-3 ovarian): 7.91 µM | TGI (MALME-3M melanoma): 36.5 µM | TGI (NCI-H226 lung): > 100 µM | TGI (A498 renal): > 100 µM | TGI (HOP-92 NSCLC): > 100 µM | TGI (UACC-257 melanoma): 34.5 µM | TGI (SK-OV-3 ovarian): > 100 µM | TGI (M14 melanoma): 36.5 µM | TGI (A549 NSCLC): 69.3 µM | TGI (K-562 leukemia): 57.2 µM | TGI (KM20L2 colon): > 100 µM | TGI (COLO 205 colon): 36.1 µM | TGI (SF-295 CNS): > 100 µM | TGI (HCT-116 colon): 35.4 µM | TGI (LXFL 529 NSCLC): 32.4 µM | TGI (EKVX NSCLC): 36.9 µM | TGI (ACHN renal): > 100 µM | TGI (CAKI-1 renal): > 100 µM | TGI (IGROV1 ovarian): 50.8 µM | TGI (U251 CNS): 72.3 µM

O=c1c2ccccc2nc(-c2ccc(Br)cc2)n1NC1OC(CO)C(O)C(O)C1O (centres undefined)
TGI (HT29 colon): > 100 µM | TGI (RXF-631 renal): > 100 µM | TGI (SK-MEL-28 melanoma): > 100 µM | TGI (HOP-18 NSCLC): > 100 µM | TGI (KM12 colon): > 100 µM | TGI (NCI-H23 lung): > 100 µM | TGI (SF-539 CNS): > 100 µM | TGI (DMS 114 small cell lung): > 100 µM | TGI (SNB-19 CNS): > 100 µM | TGI (HCT-15 colon): > 100 µM | TGI (SF-268 CNS): > 100 µM | TGI (HL-60(TB) leukemia): > 100 µM | TGI (SK-MEL-5 melanoma): > 100 µM | TGI (HCC-2998 colon): > 100 µM | TGI (NCI-H522 lung): > 100 µM | TGI (SN12C renal): > 100 µM | TGI (UO-31 renal): > 100 µM | TGI (DMS 273 small cell lung): > 100 µM | TGI (UACC-62 melanoma): > 100 µM | TGI (HOP-62 NSCLC): > 100 µM | TGI (CCRF-CEM leukemia): > 100 µM | TGI (MOLT-4 leukemia): > 100 µM | TGI (SW-620 colon): > 100 µM | TGI (RPMI-8226 leukemia): > 100 µM | TGI (SNB-78 CNS): > 100 µM | TGI (OVCAR-4 ovarian): > 100 µM | TGI (786-0 renal): > 100 µM | TGI (SNB-75 CNS): > 100 µM | TGI (TK-10 renal): > 100 µM | TGI (NCI-H460 lung): > 100 µM | TGI (M19-MEL melanoma): > 100 µM | TGI (SK-MEL-2 melanoma): > 100 µM | TGI (OVCAR-5 ovarian): > 100 µM | TGI (OVCAR-8 ovarian): > 100 µM | TGI (OVCAR-3 ovarian): > 100 µM | TGI (MALME-3M melanoma): > 100 µM | TGI (NCI-H226 lung): > 100 µM | TGI (A498 renal): > 100 µM | TGI (HOP-92 NSCLC): > 100 µM | TGI (UACC-257 melanoma): > 100 µM | TGI (SK-OV-3 ovarian): > 100 µM | TGI (M14 melanoma): > 100 µM | TGI (A549 NSCLC): > 100 µM | TGI (K-562 leukemia): > 100 µM | TGI (KM20L2 colon): > 100 µM | TGI (COLO 205 colon): > 100 µM | TGI (SF-295 CNS): > 100 µM | TGI (HCT-116 colon): > 100 µM | TGI (LXFL 529 NSCLC): > 100 µM | TGI (EKVX NSCLC): > 100 µM | TGI (ACHN renal): > 100 µM | TGI (CAKI-1 renal): > 100 µM | TGI (IGROV1 ovarian): > 100 µM | TGI (U251 CNS): > 100 µM
